From patent US20190365673A1, “Immunomodulatory Compounds” (Lankenau Institute for Medical Research, priority 2016, published 2019)

What was measured:
[1] = system: BRAF^V600E YUMM1.7 melanoma cells; assay: Cell viability assay (EZQuant), YUMM1.7; assay type: cell-based, murine; details: FIG. 9B, 72 h
Description: (§1) FIG. 9A: Murine BRAF^V600E YUMM1.7 melanoma cells and BRAF^WT B16F10 melanoma cells were treated with increasing doses of AP. After 72 hours of culture, cell survival was determined via EZQuant™ Cell Quantifying assay. IC50 values were calculated by GraphPad Prism 6. FIG. 9B: Murine BRAF^V600E YUMM1.7 melanoma cells and BRAF^WT B16F10 melanoma cells were treated with increasing doses of AP±1 mM DFMO or with PLX4720. After 72 hours of culture, cell survival was determined via EZQuant™ Cell Quantifying assay. IC50 values were calculated by GraphPad Prism 6. […] Cells were washed with cold PBS containing 50 μM spermidine, and cell lysates were assayed for CPM ^3H-spermidine per mg protein by scintillation counting.

[2] = system: 1205Lu melanoma spheroids; assay: 3D spheroid culture viability (CellTiter-Glo); assay type: cell-based, human; details: FIG. 10, 25 μM each drug, 48 h, 3D spheroids on NCPs
Description: BRAF^V600E mutant 1205Lu melanoma cells were seeded at 1×10^4 cells in each well of the […] NCPs. When spheroids were formed on day 3, the 3D cultures of spheroids were treated with PLX4720 (25 μM) and/or AP (25 μM). 2D monolayer cultures of 1205Lu melanoma cells were also treated with PLX4720 (25 μM) and/or AP (25 μM). After drug treatment for 48 hours, the viability of spheroids and monolayer cultures was assayed using the CellTiter-Glo Luminescent Cell Viability Assay. The percent cell survival in each treatment group was calculated relative to cells treated with medium only under the same conditions. As controls, the growth of cells without drug treatment under each condition was normalized as 100% separately. The means are presented±SD.
The inorganic nanoscale scaffolding NanoCulture plates (NCP) were purchased from SCIVAX. The base of each NCP is constructed with a transparent cyclo-olefin resinous sheet with a nanoscale indented pattern. To form spheroids, 1205Lu human melanoma cells were seeded in 96-well NCPs at 1×10^4 cells/well in MCDB153 (Sigma)/Leibovitz's L-15 (Cellgro) medium (4:1 ratio) supplemented with 2% heat-inactivated fetal calf serum and 2 mM CaCl2 and incubated in a conventional cell incubator at 37° C. in an atmosphere of 5% CO2 and normal O2 levels. […]

[3] = system: 1205Lu melanoma cells transduced with JARID1B-promoter-EGFP-reporter; assay: JARID1B-promoter-EGFP reporter in spheroids; assay type: cell-based, human; details: 2-day exposure, 1205Lu grown as spheroids
Excerpt: Treatment with a BRAF inhibitor such as PLX4720 enriches a slow-cycling cancer stem cell-like (CSC) subpopulation of melanoma cells that is characterized by stem cell markers including JARID1B and spheroid formation (Roesch, et al. (2010) Cell 141(4):583-594; Roesch, et al. (2013) Cancer Cell 23(6):811-825). It is thought that cancer stem cell populations exist in a hypoxic microenvironment (Schwab, et al. (2012) Breast Cancer Res., 14(1):R6; Mathieu, et al. (2011) Cancer Res., 71(13):4640-4652; Mohyeldin, et al. (2010) Cell Stem Cell, 7(2):150-161). Endogenous ROS levels are increased in slow cycling JARID1B^high melanoma cells as a result of increased mitochondrial respiration and oxidative phosphorylation (Roesch, et al. (2013) Cancer Cell 23(6):811-825). […] Using 1205Lu melanoma cells stably transduced with a JARID1B-promoter-EGFP-reporter construct (Roesch, et al.

[4] = system: BRAF-mutant melanoma tumor; assay: BRAF-mutant melanoma tumor in mice treated with PLX4720; assay type: in vivo; details: FIG. 11, PLX4720 alone
Description: FIG. 11 provides a graph of tumor volume in mice over time after treatment with PLX4720 alone or PLX4720 with delayed administration of AP and DFMO.
In addition to the above, the efficacy of AP in vivo was also tested.

[5] = system: BRAF^V600E melanoma cells; details: WM983B, WM3734, 1205Lu, WM989, WM88; read-out: IC50 (cell viability); cited from earlier work
[6] = system: BRAF^WT melanoma cells; details: WM3451, WM3743, WM3211; read-out: IC50 (cell viability); cited from earlier work
[7] = system: B16F10-sTAC melanoma tumors; assay: B16F10-sTAC melanoma tumor model; details: for polyamine levels in tumors (HPLC): FIG. 1D, compared with vehicle-treated mice; for cytokine levels in tumors: FIG. 3, compared to vehicle treated mice; for B16F10-sTAC tumor growth compared to vehicle: Trimer PTI 3 mg/kg i.p. daily and/or 0.25% DFMO in drinking water
Description: FIG. 1A: Mice were subcutaneously injected with 5×10^5 B16F10-sTAC melanoma cells. When tumors were 50-100 mm^3 in size, treatment was initiated with either saline, 0.25% DFMO (w/v) in the drinking water, Trimer PTI (i.p., 3 mg/kg, once a day) or both DFMO and Trimer PTI. […] FIG. 1B: Upon sacrifice, tumors were excised and weighed (mean±SEM). FIG. 1C: Spleen weight was determined upon sacrifice (mean±SEM). FIG. 1D: Polyamine levels were determined in tumors by HPLC and normalized to DNA levels in the tissue extracts (nmol/mg DNA). […] Trimer PTI levels were determined in tumor and skin supernatants by mass spectrometry and normalized to tissue protein concentration (nmol/mg protein). n=5-10 mice per group; *=p≤0.05 and #=p≤0.01 compared to vehicle-treated mice.
Tumor models were established by subcutaneous injections of 5×10^5 B16F10-sTAC cells in C57B16 mice or 5×10^5 CT26.CL25 cells in Balb/c mice. Mice were monitored twice a week for tumor growth. Treatment with 0.25% (w/v) DFMO in the drinking water and the Trimer PTI (3 mg/kg daily by intraperitoneal injection) was initiated when tumors were palpable (50-100 mm^3). For adoptive transfers, spleens were excised and pressed through a nylon filter to obtain a single cell suspension. The resulting suspension was incubated with red cell lysis buffer for 5 minutes to lyse red blood cells. Gr1^+ cells were stained with a PE conjugated antibody and then isolated using anti-PE microbeads (Miltenyi Biotec) as per the manufacturer's instructions. Gr1^+ positive cells were injected into the retro-orbital cavity. Tumor growth was assessed morphometrically using calipers, and tumor volumes were calculated using the formula V (mm^3)=π/6×A×B^2 (A is the larger diameter and B is the smaller diameter).
Upon sacrifice, splenocytes from B16F10-sTAC tumor bearing mice and tumor cell suspensions from CT26.CL25 tumor bearing mice were analyzed for IFN-γ producing cells by enzyme-linked immunosorbent spot (ELISpot) assay. Multiscreen filtration plates (Millipore) were coated with 0.5 μg/mL of purified anti-mouse IFN-γ capture antibody (Biolegend) overnight at 4° C. Single-cell suspensions of splenocytes or tumors were plated at 1×10^6 and 5×10^5 per well respectively. For ELISpot assays with splenocytes from B16F10-sTAC tumor bearing mice, cells were stimulated with the […] (SEQ ID NO: 1) peptide (Anaspec) at […]. […] After 16 hours of stimulation at 37° C., the cells were removed by washing and spots were developed with a biotinylated anti-IFN-γ detection antibody and streptavidin-horseradish peroxidase conjugate followed by NITRO-blue tetrazolium chloride and 5-bromo-4-chloro-3′-indoylphosphate p-toluidine salt substrate (Sigma). Spot numbers were counted, and data were reported as IFN-γ-spot forming cells per 10^6 cells.
Mouse tumor tissues were fixed in 4% paraformaldehyde in PBS overnight and embedded in paraffin. Sections were deparaffinized, hydrated, and then heated in 0.01 mol/L sodium citrate buffer (pH 6.0) in a steamer for 8 minutes. Sections were incubated with the primary antibody (rat monoclonal anti-mouse F4/80 [BioRad MCA497GA]) for 2 hours at room temperature followed by biotinylated secondary and then an avidin HRP complex (Vectastain Elite ABC KIT, Vector Laboratories, INC). Immunoreactive cells were localized by incubating the sections with diaminobenzidine and peroxide and then counterstaining with hematoxylin. Pictures were obtained using a Zeiss Axiophot microscope (Carl Zeiss Inc.) with a digital color camera and corresponding software.
B16F10-sTAC tumors were flash frozen in liquid nitrogen, ground and homogenized in PBS containing 0.5 μM dithiothreitol, 0.5 μM Pefabloc and 8 μg/mL leupeptin. Samples were analyzed for monocyte chemoattractant protein-1 (MCP-1), interleukin-6 (IL-6).

[8] = compared to AMXT1501; cited from earlier work
[9] = system: polyamine transport system (PTS); assay: Radiolabeled spermidine transport assay, human melanoma cell lines; assay type: cell-based; details: FIG. 8A, WM983B (BRAF V600E), 1 mM DFMO 40 h
Description: (§2) Polyamine transport in tumor cells was evaluated essentially as described (Kramer, et al. (1993) J. Cell Physiol., 155(2):399-407; Nilsson, et al. (2005) Cancer Cell 7(5):433-444). Radioactive spermidine (Net-522 Spermidine Trihydrochloride, [Terminal Methylenes-^3H(n)]) from Perkin Elmer was used (specific activity: 16.6 Ci/mmol). Cells were plated in 96 well plates and grown to approximately 80% confluence. Half of the cells were treated with 1 mM DFMO for 40 hours. After repeated washing with PBS, ^3H-spermidine was added at 1 μM and incubated for 60 minutes at 37° C. Cells were then washed with cold PBS containing 50 μM spermidine and lysed in 0.1% SDS at 37° C. for 30 minutes with mixing. Cell lysates were then aliquoted for scintillation counting and for protein assay using a mini-BioRad assay. Results were expressed as CPM/g protein.

[10] = system: polyamine transport system (PTS); assay: Radiolabeled spermidine transport assay, murine melanoma cells; assay type: cell-based
Description: as §1, §2

Row | SMILES | sensitivity to PLX4720 (IC50 compared to B16F10 cells) [1] | cell viability of spheroid cultures [2] | enrichment of JARID1B-driven GFP expressing cells [3] | BRAF-mutant melanoma tumor volume over time [4] | IC50 [5] | IC50 [6] | spleen weight ([7]; FIG. 1C, Trimer PTI with or without DFMO) | polyamine levels in tumors (HPLC) [7] | accumulation in tumor compared to non-tumor bearing skin (mass spectrometry) ([7]; FIG. 1E, PBT-treated mice) | cytokine levels in tumors [7] | B16F10-sTAC tumor growth compared to vehicle [7] | water solubility [8] | polyamine transport activity after DFMO treatment [9] | polyamine uptake after DFMO treatment ([10]; B16F10 retrovirally expressing BRAF V600E, 1 mM DFMO) | polyamine uptake after DFMO treatment ([10]; FIG. 9C, B16F10 (BRAF WT), 1 mM DFMO 40 h) | PTS activity after DFMO treatment ([10]; FIG. 9C, YUMM1.7 (BRAF V600E), 1 mM DFMO 40 h)
1 | CCCS(=O)(=O)Nc1ccc(F)c(C(=O)c2c[nH]c3ncc(Cl)cc23)c1F [PLX4720, reference compound] | very sensitive | more resistant | 4 fold | initially quickly regress but then grow back | ≤ 3000 nM | > 3000 nM |  |  |  |  |  |  |  |  |  | 
2 | CNCCCCNCCCCNCc1cc(CNCCCCNCCCCNC)cc(CNCCCCNCCCCNC)c1 [Trimer PTI] |  |  |  |  |  |  | no significant effect | no discernible effect | 30 fold | did not significantly alter | only modestly reduced | more water-soluble |  |  |  | 
3 | NCCC[C@](N)(C(=O)O)C(F)F [DFMO, α-difluoromethylornithine, reference compound] |  |  |  |  |  |  |  | reduced the levels of putrescine |  | did not significantly alter | only modestly reduced |  | dramatically increased polyamine transport activity | enhance polyamine uptake | no significant induction | marked DFMO-induction of PTS activity
